In ChEMBL document CHEMBL1201862, “PubChem BioAssay data set” (2004):
The source made the active and inactive calls. Cut-off read from the data, not from the text of the source, for most assays here: actives have a measured EC50 and inactives only a lower limit.

Assays:
[1] = biological target: Luciferin 4-monooxygenase (Photinus pyralis, UniProt P08659); assay: Counter Screen for Luciferase-based Assay Positives. [Related pubchem assays: 620, 618, 411 ]
[2] = biological target: NS3 (Hepatitis C virus, UniProt A3EZJ3); assay: PubChem AID 2173; design: species or system Hepacivirus hominis
[3] = system: HT-1080; assay: HT1080 cell viability loss – fluorescence readout (AID 620); type: functional, cell-based; conditions: Homo sapiens
[4] = Luminescence Cell-Based Dose Response HTS to Identify Inhibitors of 5'UTR Stem-Loop Driven Prion Protein mRNA Translation in H4 Neuroglioblastoma Cells. [Related pubchem assays: 1827 (Project Summary), 1813 (Primary HTS)]; type: functional
[5] = alpha-synuclein stem-loop luciferase translation blockers – H4 neuroglioma cells, luminescence, confirmation (AID 1988); type: functional, cell-based
[6] = biological target: Estrogen receptor (Homo sapiens, UniProt P03372);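 note: potency for inhibiting coactivator peptide recruitment to the receptor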
[7] = biological target: T1, Estrogen receptor beta (Homo sapiens, UniProt Q92731);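 note: recombinant ER-beta bound to coactivator SRC1 peptide in presence of estradiol agonist; inhibitors block coactivator peptide binding and lower the FRET signal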
[8] = biological target: T1, Estrogen receptor beta; assay: blockers of SRC-3 recruitment to ERβ – biochemical, ELISA, streptavidin-HRP readout, orthogonal assay, confirmation (AID 1060)
[9] = Trypanosoma cruzi growth suppression in host cells – NIH3T3 host cells, beta-gal luminescence, confirmation (AID 2044); type: functional, cell-based;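 note: intracellular parasites grown in NIH/3T3 mouse fibroblasts as host cells; luminescent beta-galactosidase reporter signal from transgenic T. cruzi replicating inside host cells; inhibitors lower the luminescence signal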
[10] = biological target: Protein-tyrosine kinase 2-beta (Homo sapiens, UniProt Q14289);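 note: potency of inhibitors of PYK2 kinase phosphorylation of poly-GT substrate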
[11] = NIH3T3 cell viability loss – ATP luminescence, mouse fibroblasts, counter-screen, dose response (AID 2010); type: functional, cell-based;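 note: cells exposed to compound for about 90 hours before reading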
[12] = biological target: 26S proteasome non-ATPase regulatory subunit 14 (Homo sapiens, UniProt O00487); assay: inhibition of proteasome subunit RPN11 – biochemical, fluorescence polarization, uHTS hits, confirmation (AID 602368); type: functional
[13] = biological target: 72 kDa type IV collagenase (Homo sapiens, UniProt P08253); assay: Dose Response validation of uHTS RPN11 inhibitor hits using a MMP-2 Fluorescence assay.; type: functional
[14] = biological target: Prothrombin (Bos taurus, UniProt P00735); assay: thrombin protease inhibitors – biochemical, fluorescence polarization, uHTS hits, dose response (AID 602369); type: functional
[15] = cells
[16] = Luminescence Cell-Based Dose Response to Identify Activators of 5'UTR Stem-Loop Driven Prion Protein mRNA Translation in H4-C Neuroglioblastoma Cells. [Related pubchem assays: 1829 (Project Summary), 1814 (Primary HTS)]; type: functional
[17] = Luminescence Cell-Based Dose Confirmation HTS to Identify Activators of 5'UTR Stem-Loop Driven Alpha-Synuclein mRNA Translation in H4 Neuroglioblastoma Cells. [Related pubchem assays: 1829 (Project Summary), 1814 (Primary HTS)]; type: functional
[18] = Luminescence Cell-Based Dose Response HTS to Identify Activators of Luciferase Translation or Activity in H4 […] Cells. [Related pubchem assays: 1829 (Project Summary), 1814 (Primary HTS)]; type: functional
[19] = system: H4; assay: Luminescence Cell-Based Dose Response HTS to Identify Activators of 5'UTR Stem-Loop Driven Prion Protein mRNA Translation in H4 Neuroglioblastoma Cells. [Related pubchem assays: 1829 (Project Summary), 1814 (Primary HTS)]; type: functional; conditions: Homo sapiens
[20] = Luminescence Cell-Based Dose Response to Identify Activators of Luciferase Translation or Activity in H4-C Neuroglioblastoma Cells. [Related pubchem assays: 1829 (Project Summary), 1814 (Primary HTS)]; type: functional
[21] = Luminescence Cell-Based Dose Confirmation to Identify Activators of 5'UTR Stem-Loop Driven Alpha-Synuclein mRNA Translation in H4 Neuroglioblastoma Cells. [Related pubchem assays: 1829 (Project Summary), 1814 (Primary HTS)]; type: functional
[22] = system: BJ; assay: BJ-TERT fibroblast viability loss – cell-based, RAS-independent, luminescence, dose response (AID 1933); type: functional; conditions: Homo sapiens
[23] = system: BJ; assay: cells; type: functional, cell-based; conditions: Homo sapiens
[24] = microbe, parasite or virus in culture; type: functional; conditions: Mycobacterium tuberculosis
[25] = system: BJ; assay: BJ-TERT-LT-ST fibroblast viability loss – cell-based, RAS-independent, luminescence, dose response (AID 1935); type: functional; conditions: Homo sapiens;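 note: BJ fibroblasts immortalized with TERT plus LT and ST oncogenes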
[26] = DRD fibroblast viability loss – cell-based, non-viral oncogenic, luminescence, dose response (AID 1934); type: functional; conditions: Homo sapiens
[27] = THP-1 cell cytotoxicity, dose response, cytotoxicity control for non-replicating M. tuberculosis project (AID 489025); type: functional
[28] = HepG2 cell cytotoxicity, dose response, cytotoxicity control for non-replicating M. tuberculosis project (AID 489018); type: functional; conditions: Mycobacterium tuberculosis
[29] = Vero E6 cell cytotoxicity, dose response, cytotoxicity control for non-replicating M. tuberculosis project, secondary assay (AID 492998); type: functional, VeroE6; conditions: Vero C1008
[30] = biological target: T2, Microphthalmia-associated transcription factor (Homo sapiens, UniProt O75030); assay: reducers of TRPM1 reporter luminescence, concentration series – cell-based, SK-MEL-5, cherry-picked, set 3, MITF inhibitor project, dose response (AID 493073); type: functional;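 note: SK-MEL-5 melanoma cells with luciferase driven by the MITF target TRPM1 promoter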
T2 sequence (O75030 whole entry): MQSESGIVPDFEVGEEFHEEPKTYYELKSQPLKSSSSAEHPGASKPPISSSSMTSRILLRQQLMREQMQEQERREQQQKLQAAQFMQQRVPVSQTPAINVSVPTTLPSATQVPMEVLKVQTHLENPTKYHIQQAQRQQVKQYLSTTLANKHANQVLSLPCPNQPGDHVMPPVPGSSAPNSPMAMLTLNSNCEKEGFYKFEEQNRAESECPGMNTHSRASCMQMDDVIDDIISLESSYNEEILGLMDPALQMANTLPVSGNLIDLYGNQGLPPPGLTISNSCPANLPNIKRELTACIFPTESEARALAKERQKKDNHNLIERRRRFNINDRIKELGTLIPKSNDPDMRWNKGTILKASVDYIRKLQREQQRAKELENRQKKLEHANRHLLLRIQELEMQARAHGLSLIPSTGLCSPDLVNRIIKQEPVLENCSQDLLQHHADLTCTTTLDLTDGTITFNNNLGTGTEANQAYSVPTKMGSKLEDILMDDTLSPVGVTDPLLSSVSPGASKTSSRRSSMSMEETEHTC

[31] = system: INS1; assay: INS-1E survival protection against cytokine death – cell-based, luminescence, retest, dose response (AID 449756); type: functional; conditions: Rattus norvegicus;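 note: cell death triggered by IL-1 beta plus TNF-alpha plus IFN-gamma mixture; protective hits raise ATP signal compared with cytokine alone wells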

T1 sequence (Q92731 whole entry): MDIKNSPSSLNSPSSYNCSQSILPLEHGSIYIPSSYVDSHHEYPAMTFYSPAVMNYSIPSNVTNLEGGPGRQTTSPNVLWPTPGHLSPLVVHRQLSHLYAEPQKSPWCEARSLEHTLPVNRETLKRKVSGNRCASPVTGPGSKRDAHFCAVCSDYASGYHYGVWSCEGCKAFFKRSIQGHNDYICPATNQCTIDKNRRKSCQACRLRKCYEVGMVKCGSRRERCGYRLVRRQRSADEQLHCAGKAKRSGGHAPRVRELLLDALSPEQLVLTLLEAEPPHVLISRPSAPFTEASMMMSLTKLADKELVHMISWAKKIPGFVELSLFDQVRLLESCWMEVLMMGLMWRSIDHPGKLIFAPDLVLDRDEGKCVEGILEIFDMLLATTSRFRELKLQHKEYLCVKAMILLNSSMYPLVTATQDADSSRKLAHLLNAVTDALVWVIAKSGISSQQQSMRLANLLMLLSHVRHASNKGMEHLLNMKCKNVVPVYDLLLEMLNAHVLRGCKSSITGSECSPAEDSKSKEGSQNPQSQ
Protein-tyrosine kinase 2-beta, sequence (Q14289 whole entry): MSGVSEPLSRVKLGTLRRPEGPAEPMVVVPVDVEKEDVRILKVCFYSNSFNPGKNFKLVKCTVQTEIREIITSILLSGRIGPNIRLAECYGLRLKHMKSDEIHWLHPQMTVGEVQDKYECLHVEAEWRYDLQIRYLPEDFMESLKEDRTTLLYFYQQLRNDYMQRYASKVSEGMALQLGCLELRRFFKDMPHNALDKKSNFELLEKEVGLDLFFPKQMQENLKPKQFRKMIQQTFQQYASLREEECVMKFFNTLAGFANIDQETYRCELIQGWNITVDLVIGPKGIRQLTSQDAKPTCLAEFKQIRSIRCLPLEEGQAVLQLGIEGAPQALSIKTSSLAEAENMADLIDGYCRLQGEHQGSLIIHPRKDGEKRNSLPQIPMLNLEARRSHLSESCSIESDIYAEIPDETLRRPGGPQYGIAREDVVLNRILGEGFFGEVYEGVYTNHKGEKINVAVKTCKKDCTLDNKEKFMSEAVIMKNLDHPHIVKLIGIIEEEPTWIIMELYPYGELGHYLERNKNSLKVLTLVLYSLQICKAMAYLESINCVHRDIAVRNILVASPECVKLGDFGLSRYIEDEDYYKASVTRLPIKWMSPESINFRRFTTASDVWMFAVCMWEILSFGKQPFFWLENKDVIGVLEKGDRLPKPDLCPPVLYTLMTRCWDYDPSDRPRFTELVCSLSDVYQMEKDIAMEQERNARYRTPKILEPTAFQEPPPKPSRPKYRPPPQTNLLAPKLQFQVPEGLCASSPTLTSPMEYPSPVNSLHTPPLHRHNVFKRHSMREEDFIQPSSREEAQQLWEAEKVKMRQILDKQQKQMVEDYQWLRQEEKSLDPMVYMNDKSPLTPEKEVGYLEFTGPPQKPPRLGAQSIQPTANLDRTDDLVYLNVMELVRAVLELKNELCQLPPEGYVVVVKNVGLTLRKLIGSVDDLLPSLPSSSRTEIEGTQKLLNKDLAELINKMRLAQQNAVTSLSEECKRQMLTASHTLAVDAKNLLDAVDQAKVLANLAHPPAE
NS3, sequence (A3EZJ3 whole entry): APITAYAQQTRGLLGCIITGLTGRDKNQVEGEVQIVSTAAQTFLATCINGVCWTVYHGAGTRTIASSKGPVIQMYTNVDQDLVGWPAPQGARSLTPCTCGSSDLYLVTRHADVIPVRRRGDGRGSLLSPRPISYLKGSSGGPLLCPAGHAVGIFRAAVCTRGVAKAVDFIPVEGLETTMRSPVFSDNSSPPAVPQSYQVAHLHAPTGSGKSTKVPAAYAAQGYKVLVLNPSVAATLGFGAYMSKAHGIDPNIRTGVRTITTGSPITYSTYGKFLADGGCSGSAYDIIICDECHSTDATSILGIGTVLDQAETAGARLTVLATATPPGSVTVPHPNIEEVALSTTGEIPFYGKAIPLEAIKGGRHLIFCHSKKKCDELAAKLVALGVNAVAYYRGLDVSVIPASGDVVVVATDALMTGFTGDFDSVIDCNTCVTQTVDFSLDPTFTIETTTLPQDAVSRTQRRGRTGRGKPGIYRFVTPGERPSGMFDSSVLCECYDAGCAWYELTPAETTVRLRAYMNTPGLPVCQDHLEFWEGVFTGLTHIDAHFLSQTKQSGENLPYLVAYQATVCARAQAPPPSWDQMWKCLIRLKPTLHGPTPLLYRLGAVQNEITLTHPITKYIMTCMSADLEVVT
26S proteasome non-ATPase regulatory subunit 14, sequence (O00487 whole entry): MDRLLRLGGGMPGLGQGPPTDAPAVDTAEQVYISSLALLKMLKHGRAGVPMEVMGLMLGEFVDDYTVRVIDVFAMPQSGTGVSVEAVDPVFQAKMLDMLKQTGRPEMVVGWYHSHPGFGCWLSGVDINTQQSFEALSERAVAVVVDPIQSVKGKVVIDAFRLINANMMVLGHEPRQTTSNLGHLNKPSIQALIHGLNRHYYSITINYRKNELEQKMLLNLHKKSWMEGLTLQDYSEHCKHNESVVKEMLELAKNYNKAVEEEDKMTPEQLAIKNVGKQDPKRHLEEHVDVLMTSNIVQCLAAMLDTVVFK
Luciferin 4-monooxygenase, sequence (P08659 whole entry): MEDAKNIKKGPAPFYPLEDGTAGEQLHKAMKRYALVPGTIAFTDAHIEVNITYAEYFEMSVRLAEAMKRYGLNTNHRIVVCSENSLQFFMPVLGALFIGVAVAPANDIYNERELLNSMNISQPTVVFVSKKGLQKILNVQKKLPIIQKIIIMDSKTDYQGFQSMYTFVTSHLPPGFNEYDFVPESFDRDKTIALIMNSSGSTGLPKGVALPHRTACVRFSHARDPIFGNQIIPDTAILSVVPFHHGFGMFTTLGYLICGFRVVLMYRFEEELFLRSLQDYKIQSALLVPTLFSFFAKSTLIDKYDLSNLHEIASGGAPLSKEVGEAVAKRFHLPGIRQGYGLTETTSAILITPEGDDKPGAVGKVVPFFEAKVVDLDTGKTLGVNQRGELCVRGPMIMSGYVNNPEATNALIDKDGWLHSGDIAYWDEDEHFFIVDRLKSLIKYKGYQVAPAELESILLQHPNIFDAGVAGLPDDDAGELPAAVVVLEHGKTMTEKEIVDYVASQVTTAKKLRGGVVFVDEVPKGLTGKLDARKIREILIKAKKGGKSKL
72 kDa type IV collagenase, sequence (P08253 whole entry): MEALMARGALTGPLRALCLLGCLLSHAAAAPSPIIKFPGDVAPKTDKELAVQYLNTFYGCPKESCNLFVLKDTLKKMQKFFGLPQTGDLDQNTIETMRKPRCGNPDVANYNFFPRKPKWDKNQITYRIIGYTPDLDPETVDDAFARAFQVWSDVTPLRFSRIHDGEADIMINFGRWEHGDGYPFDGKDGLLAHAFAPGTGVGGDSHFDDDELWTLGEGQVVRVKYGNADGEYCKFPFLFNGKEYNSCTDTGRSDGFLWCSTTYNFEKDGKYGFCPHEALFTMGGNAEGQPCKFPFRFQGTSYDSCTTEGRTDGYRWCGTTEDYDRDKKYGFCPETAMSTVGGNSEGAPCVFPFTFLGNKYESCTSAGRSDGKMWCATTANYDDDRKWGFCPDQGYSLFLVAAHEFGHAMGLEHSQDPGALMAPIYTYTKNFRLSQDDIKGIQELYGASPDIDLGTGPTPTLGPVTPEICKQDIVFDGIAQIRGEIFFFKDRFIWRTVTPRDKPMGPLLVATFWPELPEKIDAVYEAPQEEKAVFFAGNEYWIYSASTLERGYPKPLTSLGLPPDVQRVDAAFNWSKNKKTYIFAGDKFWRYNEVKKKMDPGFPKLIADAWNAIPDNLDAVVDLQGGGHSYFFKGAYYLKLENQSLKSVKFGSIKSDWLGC
Estrogen receptor, sequence (P03372 whole entry): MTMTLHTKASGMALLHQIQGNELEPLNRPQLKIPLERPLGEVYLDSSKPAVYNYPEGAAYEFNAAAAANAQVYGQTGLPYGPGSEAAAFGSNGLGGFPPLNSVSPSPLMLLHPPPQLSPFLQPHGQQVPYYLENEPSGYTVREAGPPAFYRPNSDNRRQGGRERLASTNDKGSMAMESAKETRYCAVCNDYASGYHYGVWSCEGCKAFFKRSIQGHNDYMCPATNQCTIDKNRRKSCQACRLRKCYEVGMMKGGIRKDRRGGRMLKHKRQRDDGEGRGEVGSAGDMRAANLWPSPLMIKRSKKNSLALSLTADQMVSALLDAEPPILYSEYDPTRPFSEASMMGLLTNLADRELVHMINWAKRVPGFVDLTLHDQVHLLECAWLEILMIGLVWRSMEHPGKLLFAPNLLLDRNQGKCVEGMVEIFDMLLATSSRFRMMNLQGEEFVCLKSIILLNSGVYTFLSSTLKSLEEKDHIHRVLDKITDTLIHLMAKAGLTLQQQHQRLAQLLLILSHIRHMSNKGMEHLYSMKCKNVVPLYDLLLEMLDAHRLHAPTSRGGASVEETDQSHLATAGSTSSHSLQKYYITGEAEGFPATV

CCc1cc2c(=O)n(Cc3ccco3)c(SCc3c(C)noc3C)nc2s1
EC50 [1]: 0.34 µM (active) | IC50 [2]: 25.6 µM (not active) | EC50 [3]: 15.3 µM (active)

CCCNC(=O)c1ccc(-c2nc3ccccc3s2)s1
EC50 [4]: 10.7 µM (inconclusive) | EC50 [5]: 7.23 µM (active) | IC50 [6]: 30.3 µM (not active) | IC50 [7]: > 50 µM (not active) | IC50 [8]: 102 µM (not active)

COC(=O)c1[nH]c2ccc(C)cc2c1NC(=O)CN1CCCc2ccccc21
EC50 [9]: < 0.1 µM (active) | IC50 [7]: < 1.56 µM (active) | IC50 [8]: 1.03 µM (not active) | IC50 [10]: 15.2 µM (not active) | EC50 [11]: > 60 µM (not active) | IC50 [12]: 16.7 µM (active) | IC50 [13]: > 100 µM (inactive) | IC50 [14]: > 100 µM (inactive) | EC50 [15]: 0.639 µM (active)

Cc1nc2ccc(NC(=O)c3ccc(Cl)s3)cc2s1
EC50 [16]: 0.443 µM (active) | EC50 [17]: < 0.1 µM (active) | EC50 [18]: < 0.1 µM (active) | EC50 [19]: 12.5 µM (active) | EC50 [20]: 0.491 µM (active) | EC50 [21]: 0.363 µM (active)

COc1cc(C2Nc3ccc4ncccc4c3C3=C2C(=O)CCC3)cc(OC)c1O (stereo not drawn)
IC50 [10]: 12.7 µM (not active)

CCOc1ccc(OCc2ccc(C(=O)N/N=C(\C)c3ccccn3)cc2)cc1
EC50 [22]: 0.75 µM (active) | EC50 [23]: 1.25 µM (active) | CC50 [24]: 4.15 µM (active) | EC50 [25]: 3.92 µM (inconclusive) | EC50 [26]: 25.4 µM (inconclusive) | CC50 [27]: 1.37 µM (active) | CC50 [28]: 5.83 µM (active) | CC50 [29]: 3.37 µM (active) | AC50 [30]: 3.64 µM (active) | AC50 [31]: 0.712 µM (active)

COc1ccc(C2C(=O)c3ccccc3C2=O)c(OC)c1
EC50 [16]: > 12 µM (not active) | EC50 [18]: < 0.1 µM (inconclusive) | EC50 [20]: > 12 µM (not active) | EC50 [21]: 0.104 µM (inconclusive)
